# Results as given in patent US8664213B2, “Spiro bicyclic diamine derivatives as HIV attachment inhibitors” (priority 2011, dated 2014).
# Like-named read-outs stand apart in the source and are kept apart here.
# Test system: HIV-1 LAI
# Assay: Single-round infectious luciferase reporter virus (HIV-1 LAI envelope) infection of MT2 cells
# Format: cell-based
# Conditions: Human immunodeficiency virus 1, MT2, 72 h
# Text: • Virus Production— • Human embryonic Kidney cell line, 293T (HEK 293T), was propagated in Dulbecco's Modified Eagle Medium (Invitrogen, Carlsbad, Calif.) containing 10% fetal Bovine serum (FBS, Sigma, St. Louis, Mo.). The human T-cell leukemia cell MT2 (AIDS Research and Reference Reagent Program, Cat. 237) was propagated in RPMI 1640 (Invitrogen, Carlsbad, Calif.) containing 10% fetal bovine serum (FBS, Hyclone, Logan, Utah) • Virus Infection— • Single-round infectious reporter virus was produced by co-transfecting HEK 293T cells with plasmide expressing the HIV-1 LAI envelope along with a plasmid containing an HIV-1 LAI proviral cDNA with the envelope gene replaced by a firefly luciferase reporter gene (Chen et al, Ref 41). Transfections were performed using lipofectAMINE PLUS reagent as described by the manufacturer (Invitrogen, Carlsbad, Calif.).
# • 1. MT2 cells were plated in black, 384 well plates at a cell density of 5×10^3 cells per well in 25 μl RPMI 1640 containing 10% FBS. • 2. Compound (diluted in dimethylsulfoxide and growth medium) was added to cells at 12.5 μl/well, so that the final assay concentration would be ≦50 nM. • 3. 12.5 μl of single-round infectious reporter virus in Dulbecco's Modified Eagle Medium was added to the plated cells and compound at an approximate multiplicity of infection (MOI) of 0.01, resulting in a final volume of 50 μl per well. • 4. Virus-infected cells were incubated at 37 degrees Celsius, in a CO2 incubator, and harvested 72 h after infection. • 5. Viral infection was monitored by measuring luciferase expression in the infected cells using a luciferase reporter gene assay kit (Steady-Glo, Promega, Madison, Wis.) as described by the manufacturer. Luciferase activity was then quantified by measuring luminescence using an EnVision Multilabel Plate Readers (PerkinElmer, Waltham, Mass.). • 6. The percent inhibition for each compound was calculated by quantifying the level of luciferase expression in cells infected in the presence of each compound as a percentage of that observed for cells infected in the absence of compound and subtracting such a determined value from 100. • 7. An EC50 provides a method for comparing the antiviral potency of the compounds of this disclosure. The effective concentration for fifty percent inhibition (EC50) was calculated with the Microsoft Excel Xlfit curve fitting software. For each compound, curves were generated from percent inhibition calculated at 10 different concentrations by using a four parameter logistic model (model 205). Table 1 is the key for the data in Table 2.
# [1] = read-out: EC50 Group from Table 1
SMILES,EC50 [nM],EC50 [1] [nM]
"O=C(C(=O)N1CCC2(CCN(c3nnnn3-c3ccccc3)C2)C1)c1c[nH]c2c(-n3ccnn3)ncc(F)c12 (centres unmarked) [Compound 1001, 1-(4-fluoro-7-(1H-1,2,3-triazol-1-yl)-1H-pyrrolo[2,3-c]pyridin-3-yl)-2-(7-(1-phenyl-1H-tetrazol-5-yl)-2,7-diazaspiro[4.4]nonan-2-yl)ethane-1,2-dione]",5.65,< 500
"COc1cnc(-n2cnc(C)n2)c2[nH]cc(C(=O)C(=O)N3CCC4(CCN(c5nnnn5-c5ccccc5)C4)C3)c12 (centres unmarked) [Compound 1002, 1-(4-methoxy-7-(3-methyl-1H-1,2,4-triazol-1-yl)-1H-pyrrolo[2,3-c]pyridin-3-yl)-2-(7-(1-phenyl-1H-tetrazol-5-yl)-2,7-diazaspiro[4.4]nonan-2-yl)ethane-1,2-dione]",,< 500
COc1cnc(-n2cnc(C)n2)c2[nH]cc(C(=O)C(=O)N3CCC4(CCN(Cc5ccccc5)C4)C3)c12 (centres unmarked) [Compound 2002],,> 500
O=C(C(=O)N1CCC2(CCN(C(=O)c3ccccc3)C2)C1)c1c[nH]c2c(-n3ccnn3)ncc(F)c12 (centres unmarked) [Compound 2003],,> 500
COc1cnc(-n2cnc(C)n2)c2[nH]cc(C(=O)C(=O)N3CCC4(CCN(C(=O)c5ccccc5)C4)C3)c12 (centres unmarked) [Compound 2004],,> 500
"COc1cnc(-n2cnc(C)n2)c2[nH]cc(C(=O)C(=O)N3CC4(C3)CN(c3nnnn3-c3ccccc3)C4)c12 [Compound 4001, 1-(4-methoxy-7-(3-methyl-1H-1,2,4-triazol-1-yl)-1H-pyrrolo[2,3-c]pyridin-3-yl)-2-(6-(1-phenyl-1H-tetrazol-5-yl)-2,6-diazaspiro[3.3]heptan-2-yl)ethane-1,2-dione]",219,< 500
